This is an account of results in PubChem BioAssay (NCI).

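How tested: cells in 96-well plates exposed to compound for 48 hours at five concentrations. Here, GI50 denotes the concentration required for 50% inhibition of growth. The concentration for full growth arrest is given as TGI.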 Where a SMILES comes first, the peptide text is derived from it. [ ]: non-standard residue; d: D form. The star is where a group is joined. Cbz = O=C(OCc1ccccc1)*; Boc = CC(C)(C)OC(=O)*; Aib = CC(C)(N)C(=O)O; OBn = c1ccc(CO*)cc1; OtBu = CC(C)(C)O*; βAla = NCCC(=O)O

Assay in all cases: DTP human tumour cell line panel, 48 h
Assay [1] deals with LOX IMVI melanoma.
Assay [2] concerns SN12C renal.
For assay [3], the system named is OVCAR-3 ovarian.
For assay [4], the system named is SK-MEL-2 melanoma.
For assay [5], the system named is HT29 colon.
For assay [6], the system named is IGROV1 ovarian.
In assay [7] the test system is U251 CNS.
Assay [8] concerns A549 NSCLC.
In assay [9] the test system is 786-0 renal.
Assay [10] has as its system PC-3 prostate.

As to `O=[As](O)(O)c1cc(N=Nc2ccc(-c3ccc(N=Nc4cc([As](=O)(O)O)c(O)cc4O)cc3)cc2)c(O)cc1O`, the TGI in assay [1] is above 100 µM; in assay [2], above 100 µM; in assay [3] it was above 78.4 µM; in [4] it was above 100 µM; in [5], above 100 µM; in assay [6] it was above 100 µM. In addition, the TGI in assay [7], in assay [8] and in [9] was above 100 µM each time.
In the case of `COS(=O)c1cc(Cl)cc(Cl)c1O` (stereo not given), the TGI in assay [1], in assay [2], in assay [3], in [4], in assay [5] and in assay [7] was above 100 µM throughout.
Turning to `Nc1nc2c(ncn2C2C=CC(CO)O2)c(=O)[nH]1` (stereo not given), the concentration for total growth inhibition (TGI) in assay [1], in assay [2], in assay [3], in assay [4], in [5] and in assay [7] was above 100 µM throughout. The compound further showed a total growth inhibition concentration (TGI) in assay [10] above 100 µM.
With `COC(=O)C1(C(=O)OC)N=C(C)OC1C(C)C` (stereo not given), the TGI in assay [1], in assay [2], in [3], in [4], in assay [7] and in assay [10] was above 100 µM throughout. Also, the TGI in [8] and in assay [9] was above 100 µM throughout.
As for `COc1cc(C2C3=C(COC3=O)OC(C)(C)Oc3cc4c(cc32)OCO4)cc(OC)c1OC` (stereo not given), the TGI is above 100 µM in assay [1]; above 100 µM in [2]; 70.1 µM in [4]; 0.662 µM in assay [5]; above 100 µM in assay [6]; above 100 µM in [7]. For the same compound, the total growth inhibition concentration (TGI) in assay [10] and in [8] was above 100 µM each time.
For `COc1cc(/C=C2/SC(c3ccccc3)N(c3cccc([N+](=O)[O-])c3)C2=O)cc(OC)c1OC` (stereo not given), the TGI in [1], in assay [2], in assay [3], in [4], in assay [7] and in assay [8] was above 100 µM throughout. Also, the TGI in assay [9] was above 100 µM.
`CCOC(=O)C(O)(NC(C)=O)C(F)(F)F` (stereo not given): the concentration for total growth inhibition (TGI) in assay [1], in [2], in assay [3], in [4], in assay [5] and in assay [6] was above 100 µM each time. Further, the TGI in assay [7], in [10] and in assay [8] was above 100 µM each time.
For the compound `COc1cccc(-c2nc3sccn3c2-c2ccnc(NCCNC(=O)Nc3cccc(C(F)(F)F)c3)n2)c1`, the GI50 in assay [1] was 4.11 µM; in assay [2] it was 4.03 µM; in assay [3], 4.22 µM; in [4], 2030 nM; in assay [5], 3.33 µM; in [6], 3.32 µM. In addition, the GI50 is 3.95 µM in assay [7], 2480 nM in [10] and 3.82 µM in [8]. For the same compound, the total growth inhibition concentration (TGI) in assay [1] was above 100 µM; in assay [2], 26.5 µM; in assay [3], 20.3 µM; in assay [4], 4.46 µM; in assay [5], 14 µM; in assay [6], 21.8 µM. For the same compound, the TGI came out at 19.8 µM in assay [7], 11.9 µM in assay [10] and 17.1 µM in assay [8].
With `COc1ccc(OC)c2cc(Cc3ccc(N(C)C)cc3)c(=O)c(Cc3ccc(N(C)C)cc3)cc12`, the TGI in assay [2], in [3], in assay [5], in assay [6], in assay [7] and in assay [10] was above 100 µM in each case. Also, the TGI in assay [8] and in assay [9] was above 100 µM in each case.
Turning to `COC(OC)C(O)C1OC=CC1n1cnc2c(N)ncnc21` (stereo not given), the TGI in assay [1], in assay [2], in [3], in [4], in [5] and in assay [6] was above 100 µM in each case. For the same compound, the TGI in assay [7], in [10] and in assay [9] was above 100 µM throughout.
For `COc1ccc(NC2Oc3cc4c(cc3C(c3cc(OC)c(O)c(OC)c3)C2C)OCO4)cc1` (stereo not given), the TGI is 11.7 µM in assay [2]; above 100 µM in assay [3]; 6.72 µM in assay [4]; above 100 µM in [5]; above 100 µM in assay [6]; 35.1 µM in assay [7]. Moreover, the TGI in assay [10] is above 100 µM; in assay [8], 23.5 µM; in assay [9], 37.9 µM.
On to `CSC(=NC1=NC(C(F)(F)F)(C(F)(F)F)N=C(c2ccccc2)O1)SC`, for which the TGI was 42.8 µM in [1]; 42.9 µM in assay [2]; 63.9 µM in [3]; 55.9 µM in assay [4]; 61 µM in assay [5]; 75.2 µM in assay [7]. In addition, the values for the TGI in [10], in [8] and in [9] were 38.9 µM, above 100 µM and 43.5 µM, respectively.
As to `CC(C)(C)OC(=O)CC(NC(=O)OC(C)(C)C)C(=O)NC(CCCCNC(=O)OCc1ccccc1)C(=O)NC(C)(C)C(=O)NCCC(=O)OCc1ccccc1` (stereo not given) (Boc-D(OtBu)K(Cbz)[Aib][βAla]-OBn; configuration not given here), the TGI in assay [1], in [2], in [3], in assay [5], in assay [6] and in [7] was above 100 µM throughout. For the same compound, the TGI in assay [10], in assay [8] and in assay [9] was above 100 µM throughout.
On to `O=C(c1ccco1)N(C(=S)OCc1ccccn1)c1ccccc1`, for which the TGI in assay [1], in assay [2], in [3], in [4], in [5] and in [6] was above 100 µM each time. The TGI in [7], in [10] and in assay [9] was above 100 µM in each case.

As usually defined, the TGI is the concentration giving total growth inhibition. A lower TGI goes with more potent growth arrest. In general, GI50 refers to the concentration at which growth is held to half of that of the control.
